Laboratory results from PubChem BioAssay (NCI).
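Following 48 hours of exposure in 96-well plates, responses at five concentrations were used to interpolate endpoints linearly. GI50 = concentration required for 50% inhibition of growth. The concentration for full growth arrest is given as TGI.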

Assays:
Experiment in all cases: growth of human tumour cells (NCI), 48 h
K-562 leukemia = system: K-562 leukemia
NCI/ADR-RES ovarian = system: NCI/ADR-RES ovarian
SF-268 CNS = system: SF-268 CNS
SF-295 CNS = system: SF-295 CNS
SF-539 CNS = system: SF-539 CNS
SK-MEL-2 melanoma = system: SK-MEL-2 melanoma
SN12C renal = system: SN12C renal
SNB-75 CNS = system: SNB-75 CNS
SW-620 colon = system: SW-620 colon
U251 CNS = system: U251 CNS

| SMILES | TGI (K-562 leukemia) | TGI (NCI/ADR-RES ovarian) | TGI (SF-268 CNS) | TGI (SF-295 CNS) | TGI (SF-539 CNS) | TGI (SK-MEL-2 melanoma) | TGI (SN12C renal) | TGI (SNB-75 CNS) | TGI (SW-620 colon) | TGI (U251 CNS) | GI50 (SF-539 CNS) | GI50 (K-562 leukemia) | GI50 (NCI/ADR-RES ovarian) | GI50 (SF-268 CNS) | GI50 (SF-295 CNS) | GI50 (SK-MEL-2 melanoma) | GI50 (SN12C renal) | GI50 (SNB-75 CNS) | GI50 (SW-620 colon) | GI50 (U251 CNS) |
| --- | --- | --- | --- | --- | --- | --- | --- | --- | --- | --- | --- | --- | --- | --- | --- | --- | --- | --- | --- | --- |
| CC(C)Oc1c(O)c2c3c(oc(=O)n3C=CC2c2ccccc2F)c1OC(C)C (stereo unspecified) | > 100 µM | > 100 µM | > 100 µM | 78.1 µM | 52.6 µM | 34.5 µM | > 100 µM | > 100 µM | > 100 µM | > 100 µM |  |  |  |  |  |  |  |  |  |  |
| CC(C)(C)OC(=O)NCCNC(=O)OCc1ccccc1 | > 100 µM | > 100 µM | > 100 µM | > 100 µM | > 100 µM | > 100 µM | > 100 µM | > 100 µM | > 100 µM | > 100 µM |  |  |  |  |  |  |  |  |  |  |
| COC(=O)C1(C(=O)OC)CC2=C(S(=O)(=O)c3ccccc3)C[C@@H](C#N)[C@H]2C1 | > 100 µM | > 100 µM | > 100 µM | > 100 µM | > 100 µM | > 100 µM | > 100 µM | > 100 µM | > 100 µM | > 100 µM |  |  |  |  |  |  |  |  |  |  |
| COc1cc(C2c3cc4c(c(O)c3C(=O)C3CCC(=O)N32)OCO4)cc(OC)c1OC (stereo unspecified) | > 100 µM | > 100 µM | > 100 µM | > 100 µM | > 100 µM | > 100 µM | > 100 µM | > 100 µM | > 100 µM | > 100 µM |  |  |  |  |  |  |  |  |  |  |
| N#Cc1c(C#N)c(-c2ccco2)n(/N=C/c2ccco2)c1N | > 100 µM | > 100 µM | > 100 µM | > 100 µM | > 100 µM | > 100 µM | > 100 µM | 40 µM | > 100 µM | 60.3 µM |  |  |  |  |  |  |  |  |  |  |
| CC(=O)CC(=O)Nn1c(-c2cccs2)nc2ccc(I)cc2c1=O | > 100 µM | > 94.4 µM | > 100 µM | > 100 µM | 34.4 µM | > 100 µM | > 100 µM | > 100 µM | > 100 µM | > 100 µM | 13.8 µM |  |  |  |  |  |  |  |  |  |
| CC1(C)CC(=O)C2=C(C1)OC1=C(CC(C)(C)CC1=O)C2c1ccccc1Cl (stereo unspecified) | > 100 µM | > 100 µM | > 100 µM | > 100 µM | > 100 µM | > 100 µM | > 100 µM | > 100 µM | > 100 µM | > 100 µM |  |  |  |  |  |  |  |  |  |  |
| O=C1N[C@@H](c2c[nH]c3ccc(Br)cc23)C(=O)N[C@H]1c1c[nH]c2ccc(Br)cc12 | 18.9 µM | > 100 µM | 26.3 µM | 25.2 µM | 18.9 µM | 29.4 µM | 27.4 µM | 9.03 µM | 26.2 µM | 21.9 µM |  |  |  |  |  |  |  |  |  |  |
| COC(=O)c1ccc2[nH]c3c(c2c1)CC(=O)Nc1ccccc1-3 | 97.7 µM | > 100 µM | > 100 µM | > 100 µM | 5.52 µM | > 100 µM | > 100 µM | 6.11 µM | > 100 µM | 94.6 µM |  |  |  |  |  |  |  |  |  |  |
| O=C1c2c(ccc3c2CCCC3)CC12Cc1ccccc1C2 | > 48.2 µM | > 100 µM | > 100 µM | > 100 µM | > 75.3 µM | 39.6 µM | > 100 µM | > 100 µM | > 100 µM | > 100 µM |  |  |  |  |  |  |  |  |  |  |
| O=S(=O)(N1CCCCN(S(=O)(=O)C(F)(F)F)CCCN(S(=O)(=O)C(F)(F)F)CCCN(S(=O)(=O)C(F)(F)F)CCCCN(S(=O)(=O)C(F)(F)F)CCCN(S(=O)(=O)C(F)(F)F)CCC1)C(F)(F)F | > 100 µM | > 100 µM | > 100 µM | 82.1 µM | 84.1 µM | > 100 µM | > 100 µM | 92.8 µM | > 100 µM | 64.1 µM |  |  |  |  |  |  |  |  |  |  |
| Cc1ccc(-c2cn3c(nc4ccccc43)c(C)n2)cc1 | > 100 µM | > 100 µM | > 100 µM | > 100 µM | > 100 µM | > 63.8 µM | > 100 µM | > 87.6 µM | > 100 µM | > 87.7 µM |  |  |  |  |  |  |  |  |  |  |
| COc1cc2c(cc1C)NC(=O)/C2=C/c1c(Cl)n(C)c2ccccc12 | > 100 µM | 24.6 µM | 16.2 µM | 29.4 µM | 56.5 µM | 30.4 µM | 33.3 µM | 13.4 µM | > 100 µM | 28 µM |  |  |  |  |  |  |  |  |  |  |
| CCC1OC(=O)C(C)C(OC2CC(C)(O)C(O)C(C)O2)C(C)C(O)C(C)(O)CC(C)C(=O)C(C)C(O)C1C (stereo unspecified) | > 300 µM | > 300 µM | > 300 µM | > 300 µM | > 300 µM | > 300 µM | > 300 µM | > 300 µM | > 300 µM | > 300 µM |  |  |  |  |  |  |  |  |  |  |
| C=C(Cl)C(Cl)(CBr)CCC(Cl)C(C)C (stereo unspecified) | > 100 µM | 29.3 µM | 11.5 µM | 6.48 µM | 2.59 µM | 4.29 µM | 33.2 µM | 5.66 µM | 11.8 µM | 1.88 µM |  |  |  |  |  |  |  |  |  |  |
| Nc1cc(N)c2nc(-c3ccccc3)c(Sc3ccc(F)cc3)nc2c1 | > 100 µM | 34.7 µM | 38.9 µM | 29.9 µM | 40 µM | > 100 µM | 35.4 µM | 47.8 µM | 49.6 µM | 31.7 µM | 21.3 µM | 39.6 µM | 16.6 µM | 17.6 µM | 13.9 µM | 38.4 µM | 17.6 µM | 21.1 µM | 22.8 µM | 16.4 µM |
| Cc1ccc(-c2c(C#N)c(O)n(NS(=O)(=O)c3ccccc3)c(=O)c2C#N)cc1 | > 100 µM | > 100 µM | > 100 µM | > 100 µM | > 100 µM | > 100 µM | > 100 µM | > 100 µM | > 100 µM | > 100 µM |  |  |  |  |  |  |  |  |  |  |
| COc1c(-c2ccc3c(c2)OCO3)oc2cc3c(c(OC)c2c1=O)OCO3 | > 100 µM | 85.5 µM | 44.2 µM | 61.8 µM | 34.8 µM | 56.9 µM | 47.1 µM | 44.9 µM | > 100 µM | 36.7 µM |  |  |  |  |  |  |  |  |  |  |
| CC(C)NC(=O)OCc1c(COC(=O)NC(C)C)c(-c2ccc[n+](COC(=O)C3CCCCC3)c2)n2c1CCC2 | > 100 µM | > 100 µM | > 100 µM | > 100 µM | > 100 µM | > 100 µM | > 100 µM | > 100 µM | > 100 µM | > 100 µM |  |  |  |  |  |  |  |  |  |  |
| O=C1CSC(c2ccc(Cl)cc2)N1c1ccc(-n2c(-c3ccccc3)nc3ccccc3c2=O)cc1 (stereo unspecified) | > 100 µM | > 100 µM | > 100 µM | > 100 µM | > 100 µM | > 100 µM | > 100 µM | 69 µM | > 100 µM | > 100 µM |  |  |  |  |  |  |  |  |  |  |
| CN(C)/C=C/c1ccnc2c1C(=O)c1ccccc1C2=O | > 47.1 µM | 57.4 µM | > 69 µM | 14.3 µM | 39.5 µM | 18.3 µM | 19.8 µM | 16.1 µM | 21.5 µM | 49.7 µM |  |  |  |  |  |  |  |  |  |  |
| O=C1NC(N2CCCC(CO)C2)=N/C1=C\c1ccc(O)cc1 (stereo unspecified) | > 100 µM | > 100 µM | > 100 µM | > 100 µM | > 100 µM | > 100 µM | > 100 µM | > 100 µM | > 100 µM | > 100 µM |  |  |  |  |  |  |  |  |  |  |
| CN(C)CCCN1c2ccc3ccccc3c2Sc2cccc(Cl)c21 | 3.77 µM | 23.4 µM | 32.5 µM | 12.4 µM | 20.7 µM | 3.75 µM | 20.3 µM | 12 µM | 4.33 µM | 4.72 µM |  |  |  |  |  |  |  |  |  |  |
| COc1cc(OC)cc(N(C)Cc2cnc3nc(N)nc(N)c3c2C)c1 | > 100 µM | > 100 µM | > 100 µM | > 100 µM | 4.96 µM | > 100 µM | > 100 µM | > 100 µM | > 100 µM | > 100 µM |  |  |  |  |  |  |  |  |  |  |
| O=C(C(=O)n1ccc2ccccc21)c1c[nH]c2ccccc12 | > 10 µM | > 10 µM | > 10 µM | > 10 µM | > 10 µM | > 10 µM | > 10 µM | > 10 µM | > 10 µM | > 10 µM |  |  |  |  |  |  |  |  |  |  |
| CCO/C=N/C1=C(C#N)C(c2ccc(OC)c(OC)c2)c2c(-c3ccccc3)nn(-c3ccccc3)c2O1 (stereo unspecified) | 27 µM | 48.3 µM | 61.7 µM | 30.7 µM | 33.7 µM | 43.8 µM | 38.9 µM | 34.2 µM | 29.2 µM | 26.8 µM |  |  |  |  |  |  |  |  |  |  |
| C[C@H]1C(=O)C2=C[C@H]1CCC(=O)[C@]1(C)CCCC(C)(C)[C@H]1C[C@H]2O | 33.4 µM | 74.2 µM | 64 µM | > 100 µM | 28.8 µM | > 100 µM | 94.2 µM | 82.8 µM | 28.2 µM | 28.4 µM |  |  |  |  |  |  |  |  |  |  |
| O=C(CSCC(=O)N/N=C\c1cc(Br)cc(Br)c1O)N/N=C\c1cc(Br)cc(Br)c1O | 80.1 µM | > 100 µM | 58.2 µM | > 100 µM | 78.8 µM | 42.7 µM | > 100 µM | > 100 µM | > 100 µM | 22.3 µM |  |  |  |  |  |  |  |  |  |  |
| CCN1CCc2sc3[nH]c(=S)n(C)c(=O)c3c2C1 | > 100 µM | > 100 µM | > 100 µM | > 100 µM | > 100 µM | > 100 µM | > 100 µM | > 100 µM | > 100 µM | > 100 µM |  |  |  |  |  |  |  |  |  |  |
| c1ccc(C2(c3cc4ccccc4[nH]3)OCCO2)cc1 | > 100 µM | > 100 µM | > 100 µM | > 100 µM | > 100 µM | > 100 µM | > 100 µM | > 100 µM | > 100 µM | > 100 µM |  |  |  |  |  |  |  |  |  |  |
